Data published in the NIST ThermoML archive (doi:10.1016/j.fluid.2019.05.003).

Assay: xn = mol fraction of the nth substance listed
Settings: 101 kPa, Liquid; for viscosity: Falling or rolling sphere viscometry; for mass density: Vibrating tube method

CC[n+]1ccccc1.[Br-] [1-ethylpyridinium bromide] + O
Settings	mass density [kg/m3]	viscosity [mPa·s]
298.15 K, x1 = 0.027	1069.4	1.203
298.15 K, x1 = 0.049	1113.8	1.483
298.15 K, x1 = 0.063	1139.5	1.75
298.15 K, x1 = 0.086	1174.3	2.18
298.15 K, x1 = 0.101	1194.1	2.507
298.15 K, x1 = 0.147	1243.9	3.769
298.15 K, x1 = 0.184	1274.6	5.028
298.15 K, x1 = 0.213	1294.5	6.298
298.15 K, x1 = 0.25	1315.3	8.734
298.15 K, x1 = 0.299	1337	10.5
298.15 K, x1 = 0.341	1352.3	13.33
298.15 K, x1 = 0.401	1370.9	19.65
298.15 K, x1 = 0.451	1381.1	25.82
303.15 K, x1 = 0.027	1067.4	1.071
303.15 K, x1 = 0.049	1111.4	1.339
303.15 K, x1 = 0.063	1137	1.554
303.15 K, x1 = 0.086	1171.6	1.913
303.15 K, x1 = 0.101	1191.2	2.215
303.15 K, x1 = 0.147	1240.8	3.293
303.15 K, x1 = 0.184	1271.3	4.402
303.15 K, x1 = 0.213	1291.1	5.427
303.15 K, x1 = 0.25	1311.9	7.646
303.15 K, x1 = 0.299	1333.6	8.868
303.15 K, x1 = 0.341	1348.8	11.27
303.15 K, x1 = 0.401	1367.4	16.67
303.15 K, x1 = 0.451	1378	21.6
308.15 K, x1 = 0.027	1065.2	0.969
308.15 K, x1 = 0.049	1109	1.207
308.15 K, x1 = 0.063	1134.3	1.393
308.15 K, x1 = 0.086	1168.7	1.728
308.15 K, x1 = 0.101	1188.2	1.966
308.15 K, x1 = 0.147	1237.6	2.911
308.15 K, x1 = 0.184	1268	3.821
308.15 K, x1 = 0.213	1287.7	4.737
308.15 K, x1 = 0.25	1308.5	6.664
308.15 K, x1 = 0.299	1330.2	7.711
308.15 K, x1 = 0.341	1345.4	9.653
308.15 K, x1 = 0.401	1364	14.3
308.15 K, x1 = 0.451	1374.6	18.22
313.15 K, x1 = 0.027	1062.8	0.882
313.15 K, x1 = 0.049	1106.4	1.093
313.15 K, x1 = 0.063	1131.6	1.26
313.15 K, x1 = 0.086	1165.8	1.565
313.15 K, x1 = 0.101	1185.2	1.768
313.15 K, x1 = 0.147	1234.3	2.591
313.15 K, x1 = 0.184	1264.6	3.38
313.15 K, x1 = 0.213	1284.3	4.172
313.15 K, x1 = 0.25	1305	5.814
313.15 K, x1 = 0.299	1326.7	6.713
313.15 K, x1 = 0.341	1341.9	8.366
313.15 K, x1 = 0.401	1360.5	12.27
313.15 K, x1 = 0.451	1371.1	15.47
318.15 K, x1 = 0.027	1061	0.808
318.15 K, x1 = 0.049	1103.7	1.004
318.15 K, x1 = 0.063	1128.8	1.146
318.15 K, x1 = 0.086	1162.8	1.414
318.15 K, x1 = 0.101	1182.1	1.599
318.15 K, x1 = 0.147	1230.9	2.321
318.15 K, x1 = 0.184	1261.3	3.012
318.15 K, x1 = 0.213	1280.9	3.702
318.15 K, x1 = 0.25	1301.6	5.096
318.15 K, x1 = 0.299	1323.3	5.898
318.15 K, x1 = 0.341	1338.5	7.312
318.15 K, x1 = 0.401	1357.1	10.62
318.15 K, x1 = 0.451	1367.7	13.29
323.15 K, x1 = 0.027	1058.9	0.744
323.15 K, x1 = 0.049	1100.6	0.92
323.15 K, x1 = 0.063	1125.8	1.047
323.15 K, x1 = 0.086	1159.7	1.287
323.15 K, x1 = 0.101	1179	1.456
323.15 K, x1 = 0.147	1227.7	2.096
323.15 K, x1 = 0.184	1257.9	2.702
323.15 K, x1 = 0.213	1277.5	3.309
323.15 K, x1 = 0.25	1298.1	4.482
323.15 K, x1 = 0.299	1319.8	5.226
323.15 K, x1 = 0.341	1335	6.446
323.15 K, x1 = 0.401	1353.7	9.272
323.15 K, x1 = 0.451	1364.3	11.53
328.15 K, x1 = 0.027	1056.7	0.695
328.15 K, x1 = 0.049	1097.6	0.846
328.15 K, x1 = 0.063	1122.7	0.961
328.15 K, x1 = 0.086	1156.6	1.18
328.15 K, x1 = 0.101	1175.8	1.332
328.15 K, x1 = 0.147	1224.4	1.9
328.15 K, x1 = 0.184	1254.4	2.439
328.15 K, x1 = 0.213	1274	2.977
328.15 K, x1 = 0.25	1294.7	3.973
328.15 K, x1 = 0.299	1316.3	4.663
328.15 K, x1 = 0.341	1331.6	5.733
328.15 K, x1 = 0.401	1350.2	8.204
328.15 K, x1 = 0.451	1360.8	10.13
333.15 K, x1 = 0.027	1054.6	0.644
333.15 K, x1 = 0.049	1095.3	0.787
333.15 K, x1 = 0.063	1119.5	0.889
333.15 K, x1 = 0.086	1153.8	1.088
333.15 K, x1 = 0.101	1172.5	1.222
333.15 K, x1 = 0.147	1221	1.737
333.15 K, x1 = 0.184	1251	2.216
333.15 K, x1 = 0.213	1270.6	2.698
333.15 K, x1 = 0.25	1291.2	3.554
333.15 K, x1 = 0.299	1312.9	4.186
333.15 K, x1 = 0.341	1328.1	5.129
333.15 K, x1 = 0.401	1346.8	7.29
333.15 K, x1 = 0.451	1357.4	8.99
338.15 K, x1 = 0.027	1052.4	0.612
338.15 K, x1 = 0.049	1092.6	0.734
338.15 K, x1 = 0.063	1116.8	0.825
338.15 K, x1 = 0.086	1150.9	1.006
338.15 K, x1 = 0.101	1169.1	1.118
338.15 K, x1 = 0.147	1217.5	1.582
338.15 K, x1 = 0.184	1247.5	2.019
338.15 K, x1 = 0.213	1267.1	2.42
338.15 K, x1 = 0.25	1287.7	3.118
338.15 K, x1 = 0.299	1309.4	3.788
338.15 K, x1 = 0.341	1324.7	4.616
338.15 K, x1 = 0.401	1343.4	6.5
338.15 K, x1 = 0.451	1354	8.008
343.15 K, x1 = 0.027	1050.3	0.58
343.15 K, x1 = 0.049	1089.9	0.689
343.15 K, x1 = 0.063	1113.8	0.771
343.15 K, x1 = 0.086	1147.9	0.941
343.15 K, x1 = 0.101	1166.3	1.045
343.15 K, x1 = 0.147	1214	1.465
343.15 K, x1 = 0.184	1244	1.855
343.15 K, x1 = 0.213	1263.5	2.245
343.15 K, x1 = 0.25	1284.2	2.805
343.15 K, x1 = 0.299	1305.9	3.416
343.15 K, x1 = 0.341	1321.2	4.159
343.15 K, x1 = 0.401	1339.9	6.011
343.15 K, x1 = 0.451	1350.6	7.3
348.15 K, x1 = 0.027	1048.2	0.549
348.15 K, x1 = 0.049	1087.2	0.649
348.15 K, x1 = 0.063	1110.9	0.724
348.15 K, x1 = 0.086	1144.9	0.886
348.15 K, x1 = 0.101	1163.2	0.982
348.15 K, x1 = 0.147	1211.1	1.355
348.15 K, x1 = 0.184	1240.4	1.706
348.15 K, x1 = 0.213	1260	2.06
348.15 K, x1 = 0.25	1280.6	2.589
348.15 K, x1 = 0.299	1302.4	3.124
348.15 K, x1 = 0.341	1317.7	3.785
348.15 K, x1 = 0.401	1336.5	5.338
348.15 K, x1 = 0.451	1347.1	6.657
